# In US20250388623A1, “PEPTIDE INHIBITOR AND USE THEREOF” (CHENGDU BRILLIANT INSPIRATION BIOTHERAPEUTICS CO., LTD, priority 2022, published 2025):
# How the values were obtained:
# [1] = target: T1, binding of TSP-1 protein to CD36, a TSP-1 receptor protein (Homo sapiens, UniProt P07996); test: ELISA: blocking of CD36 binding to TSP-1 protein
# T1 construct: purchased novoprotein (TSP-1); R&D Systems (Fc-tagged CD36) CU45 (TSP-1); 1955-CD-050 (CD36-Fc)
# Protocol: ELISA assay was performed to detect the ability of the polypeptides to block the binding of TSP-1 protein to CD36, a TSP-1 receptor protein. TSP-1 protein (novoprotein, Catalog No. CU45) was diluted to 2 μg/mL using 100 mM carbonate buffer and added to sample wells (100 μL/well) of a 96-well ELISA plate (Thermo, Catalog No. 437111), and incubated overnight at 4° C.; after washing the plate twice using 1×PBST wash solution, 200 μL of 1.5% BSA (Sigma, Catalog No. B2064) was added to each well, and incubated at 37° C. for 2 h; after washing the plate 3 times using 1×PBST wash solution, the analytes were added (100 μL/well, 3 replicate wells; for the control group, 0.25 μg/mL of Fc-tagged CD36 protein (R&D Systems, Catalog No. 1955-CD-050); and for the polypeptide-treated groups, a mixture containing Fc-tagged CD36 protein and polypeptide at final concentrations of 0.25 μg/mL and 100 μM, respectively), and incubated at 37° C. for 3 h. After washing the plate 5 times using 1×PBST wash solution, a 1:500 dilution solution of FITC-labeled anti-Fc-tagged antibody (Beyotime, Catalog No. A0556) was added, and incubated for 1 h at 37° C.; after washing the plate 5 times using 1×PBST wash solution, a multifunctional ELISA instrument (TECAN, model: Infinite 200 Pro) was used to detect the intensity of FITC fluorescence signal in each sample well. The ability of the polypeptides to block CD36 binding to TSP-1 protein (Table 2-1) was assessed by calculating the ratio of the fluorescence signal from the polypeptide-treated groups to that of the control group, allowing for the determination of the blocking rate of the polypeptides in inhibiting CD36 binding to TSP-1 protein, i.e., (fluorescence signal of the control group-fluorescence signal of the polypeptide-treated group)/fluorescence signal of the control group×100%. Based on the blocking rate results obtained at the single concentration and on the polypeptide molecule properties, the preferred polypeptide molecules were assayed for concentration dependence (at 0 μM, 0.5 μM, 1 μM, 5 μM, 10 μM, and 100 μM), and IC50 values of the polypeptides for blocking CD36 binding to TSP-1 protein were determined to further assess the abilities of the preferred polypeptide molecules to block the binding of CD36 to TSP-1 (Table 2-2).
# [2] = tested on: TSP-1-dependent TGF-β activation; test: TSP-1-dependent TGF-β activation in PMA-differentiated THP-1 cells with 293-TGFβ Res reporter cells; type: cell-based; settings: 100 μM polypeptide, 24 h; ratio to negative control group (1.00)
# Protocol: In this Example, the inhibitory effects of the polypeptides on TSP-1-dependent TGF-β activation were detected using a model based on a high TSP-1 expressing cell. In the assay, THP-1 cells (American Typical Culture Collection, ATCC, TIB-20) were induced by phorbol ester (Phorbol 12-myristate 13-acetate, PMA) (Sigma, Catalog No. P1585) and differentiated into macrophage-like cells with distinct macrophage expression profiles.
# The experiment was performed as follows: THP-1 cells were inoculated in a 96-well plate, and treated with 300 nM PMA for differentiation and adherence to form macrophage-like cells. 100 μM polypeptide was added (For the negative control group, an equal volume of PBS (the solvent for the polypeptide) was added, while the positive control group received an equal concentration of the polypeptide shown in SEQ ID NO: 50.) The cells were treated for 24 hours, and then a 293 reporter cell strain, 293-TGFβ Res cell strain (novoprotein, Catalog No. XCC03-1), was added for detecting TGF-β activity, and co-cultivated for 24 hours. Bio-Lite Luciferase Assay lysate comprising fluorescent substrate (Vazyme, Catalog No. DD1201-01) was added, and the fluorescent intensity was detected using a multifunctional microplate reader (TECAN, model Infinite 200 Pro). The inhibitory effect of the polypeptide on TGF-β activation was assessed by calculating the ratio of the fluorescence signal from the polypeptide-treated groups to that of the negative control group.
# [3] = tested on: mouse lung fibrosis model induced by bleomycin (BLM); test: Inflammatory and fibrotic pathology (HE, Masson's trichrome) in BLM mouse fibrosis model; type: in vivo; set-up: scale not given here
# Protocol: This Example was to assess the inhibitory effect of polypeptides on fibrotic pathology. 6- to 8-week-old male C57/6J mice weighing 18-20 g were used as subjects for the study. The experimental animals were randomized into groups, 6 animals in each group. On the day of modeling (Day 1), a single dose of 0.7 USP/kg of BLM solution was administered via the tracheal route to the BLM group and each peptide-treated group to induce the model. The negative control group received an equal volume of saline. Treatment dosing started on Day 8. Each peptide-treated group received the peptide drug intratracheally at a dosage of 3 mg/kg, while the positive control group received the peptide of SEQ ID NO: 50 at the same dosage, and the administration frequency was twice a week, with a total of 4 administrations. The BLM model group and the negative control group received an equal volume of solvent (saline) as a control. The procedure followed that described in Example 4.
# On Day 21, the lung tissues were dissected, washed with saline to remove blood stains, and dried with gauze. Histopathological analysis was then performed on the dissected lung tissues. The lung tissues were perfused with 0.5 mL of paraformaldehyde via the trachea and placed in 4 mL of paraformaldehyde. A small amount of gauze was added to ensure the lung tissues were completely immersed in the fixative solution. The tissues were fixed for more than 24 hours. One lobe of the left lung and four lobes of the right lung were trimmed to the maximum coronal plane, placed in an embedding cassette, dehydrated overnight, and then paraffin-embedded to make 3 μm sections. An autostainer (Leica, model ST5010) was used for Hematoxylin (Herst, lot no. 201905)-Eosin (Chron, lot no.2018070301) (HE) staining, and MASSON'S trichrome (Celestineblue, Chron, lot no. MKCH8129; Aniline blue, Yuanye, lot no. H70J11S115483; Ponceau, Sigma, lot no. SHBM2047) staining. After mounting the sections, they were scanned using a digital panoramic scanner (Zhiyue, model WS-10). For each lung lobe, ≤10 visual fields were captured under a 20× magnification. The severity of inflammation and the severity of fibrosis were assessed using HE staining and Masson's trichrome staining, respectively, to evaluate the inhibitory effects of the polypeptides on inflammatory infiltration and fibrotic deposition at pathological fibrotic sites.
# active TGF-β = test: Active TGF-β level in lung tissue, bleomycin (BLM) mouse lung fibrosis model; type: in vivo; settings: single intratracheal dose 3 mg/kg on Day 7, lung 24 h later; BLM model group = 100.00
# Excerpt: This Example was to evaluate the inhibitory effect of polypeptides on active TGF-β level during the progression of fibrotic disease. In this Example, a mouse lung fibrosis model induced by bleomycin (BLM) was used. The BLM animal model offers advantages, including a close mimicry of the pathological features of the primary disease, ease of use, and good reproducibility. It is the most representative model for studying the mechanisms of fibrosis and is recommended for evaluating drug efficacy.
# In this Example, 6 to 8-week-old male C57/6J mice weighing 18-20 g were used as subjects for the study. The experimental animals were randomized into groups, 8 animals in each group, and the expressions of pro-fibrotic factors were detected at the endpoint of the experiment (Day 8) in this model. In this example, an aerosol intratracheal metered dosing applicator (Yuyan, model YAN30012) was utilized for intratracheal administration during the modeling and drug delivery processes. The dosing was performed as follows (An Official American Thoracic Society Workshop Report: Use of Animal Models for the Preclinical Assessment of Potential Therapies for Pulmonary Fibrosis, Am J Respir Cell Mol Biol Vol 56, Iss 5, pp 667-679, May 2017): The experimental animals were anesthetized with aerosolized isoflurane (RWD, lot no. 22041701) using a small animal anesthesia machine (RWD, model R500IE). Animals in the appropriate anesthetic state were positioned supine with heads facing up and bodies tilted on an operating platform (tilted at approximately) 60°, secured by their incisors. The practitioner gently lifted the tongue with tissue forceps in the right hand, pushing it outward and upward to open the animal's lower jaw. Holding the laryngoscope (Yuyan, model SR310-RW) in the left hand, the practitioner slid its anterior leaf-shaped blade along the midline of the tongue into the oral cavity until reaching the glottis, gently pressing the body and root of the tongue upward. The needle of the drug applicator was then inserted through the mouth into the glottis alongside the laryngoscope, and 50 μL of liquid was quickly injected. On the day of modeling (Day 1), the experimental animals were randomly assigned to groups and administered a 0.7 USP/kg dose of bleomycin solution (HanHui Pharmaceutical, Batch No. 20080511) via the tracheal route to induce the model. On Day 7, each peptide-treated group received a single intratracheal dose of 50 μL peptide drug (at a dosage of 3 mg/kg), while the model group was given an equal volume of solvent (saline, Kelong, Batch No. L221062501) as a control. Twenty-four hours after drug administration, the animals were dissected to collect lung tissue, which was ground in liquid nitrogen to extract total protein from the lung tissue. The active TGF-β content in the lung tissue of mice from each group was measured using the TGF-β ELISA kit (BOSTER, catalog number EK0515). The ratio of active TGF-β content between the peptide-treated group and the model group was calculated to evaluate the effect of the peptide on active TGF-β level.
# P-Smad2/3 = P-Smad2/3 content in lung tissue, BLM mouse fibrosis model; type: in vivo; settings: single intratracheal dose 3 mg/kg on Day 7, lung 24 h later; BLM model group = 100.00
# Excerpt: This example aimed to evaluate the inhibitory effect of polypeptides on the TGF-β downstream signaling pathway during fibrosis progression. TGF-β intracellular signaling relies on the phosphorylation events of Smad family proteins. The increase in Smad2/3 phosphorylation levels is an important indicator that signal transduction has occurred in the TGF-β signaling pathway.
# In this example, 6- to 8-week-old male C57/6J mice weighing 18-20 g were used as subjects for the study. The experimental animals were randomized into groups, eight animals in each group. In this example, intratracheal administration was performed using an aerosol intratracheal metered dosing applicator during both the modeling and drug delivery processes, as described in Example 4. On the day of modeling (Day 1), the experimental animals were randomly assigned to groups and administered a 0.7 USP/kg dose of bleomycin solution (HanHui Pharmaceutical, Batch No. 20080511) via the tracheal route to induce the model. On Day 7, each peptide-treated group received a single intratracheal dose of peptide drug at a dosage of 3 mg/kg, while the BLM model group was given an equal volume of solvent (saline) as a control. Twenty-four hours after drug administration, the animals were dissected, and the lung tissues were collected and frozen in liquid nitrogen for future use. Total protein from the lung tissue was extracted after grinding the tissue in liquid nitrogen, and the total P-Smad2/3 content in the tissue was measured by using P-Smad2/3 ELISA kit (CST, Catalog No. 12001C). The ratio of the P-Smad2/3 content between the peptide-treated group and the model group was calculated to evaluate the effect of the peptide on TGFβ signaling.
# [4] = tested on: human breast cancer MCF7 cells; test: Transwell tumor cell migration, co-culture with PMA-differentiated THP-1 cells; type: cell-based; settings: 100 μM polypeptide 48 h, co-culture 48 h; negative control group = 100.00
# Protocol: (§1) This Example was to assess the effects of polypeptides on the migration abilities of different tumor cells. The experiment was performed using transwell nested chambers (membrane pore size of 8 μm), where THP-1 cells were inoculated in the lower chamber and treated with 300 nM PMA (Sigma, Catalog No.P1585) for differentiation and chamber-wall adherence, and then treated with 100 μM polypeptide (in the negative control, an equal volume of solvent was added) for 48 hours. The upper chamber was inoculated with tumor cells, human lung adenocarcinoma A549 cells (American Typical Culture Collection, ATCC, CCL-18), and co-cultured for 24 hours; or inoculated with human liver cancer HepG2/C3A cells (ATCC, CRL-10741), and co-cultured for 24 h; or inoculated with human breast cancer MCF7 cells (ATCC, HTB-22), and co-cultured for 48 h. After that, the upper chamber was taken out, fixed with 70% ethanol for 10 min and washed, then stained with Giemsa staining solution (Beyotime, Catalog No.C0131) for 45 min. After washing with double distilled water 2-3 times, unmigrated cells were wiped off the upper layer with a cotton swab. After the chamber was dried, it was observed under a microscope, and five different fields of view under a 100× magnification were randomly selected for counting and statistics. The polypeptides had significant inhibitory effects on the migratory abilities of human lung adenocarcinoma cells, human liver cancer cells, and human breast cancer cells.
# [5] = tested on: human liver cancer HepG2/C3A cells; test: as above; type: cell-based; settings: 100 μM polypeptide 48 h, co-culture 24 h; negative control group = 100.00
# Protocol: as §1
# [6] = tested on: human lung adenocarcinoma A549 cells; test: as above; type: cell-based; settings: 100 μM polypeptide 48 h, co-culture 24 h; negative control group = 100.00
# Protocol: as §1
# [7] = 100 μM polypeptide, 0.25 μg/mL Fc-tagged CD36, blocking of CD36 binding to TSP-1
# T1 sequence (P07996 19-1170): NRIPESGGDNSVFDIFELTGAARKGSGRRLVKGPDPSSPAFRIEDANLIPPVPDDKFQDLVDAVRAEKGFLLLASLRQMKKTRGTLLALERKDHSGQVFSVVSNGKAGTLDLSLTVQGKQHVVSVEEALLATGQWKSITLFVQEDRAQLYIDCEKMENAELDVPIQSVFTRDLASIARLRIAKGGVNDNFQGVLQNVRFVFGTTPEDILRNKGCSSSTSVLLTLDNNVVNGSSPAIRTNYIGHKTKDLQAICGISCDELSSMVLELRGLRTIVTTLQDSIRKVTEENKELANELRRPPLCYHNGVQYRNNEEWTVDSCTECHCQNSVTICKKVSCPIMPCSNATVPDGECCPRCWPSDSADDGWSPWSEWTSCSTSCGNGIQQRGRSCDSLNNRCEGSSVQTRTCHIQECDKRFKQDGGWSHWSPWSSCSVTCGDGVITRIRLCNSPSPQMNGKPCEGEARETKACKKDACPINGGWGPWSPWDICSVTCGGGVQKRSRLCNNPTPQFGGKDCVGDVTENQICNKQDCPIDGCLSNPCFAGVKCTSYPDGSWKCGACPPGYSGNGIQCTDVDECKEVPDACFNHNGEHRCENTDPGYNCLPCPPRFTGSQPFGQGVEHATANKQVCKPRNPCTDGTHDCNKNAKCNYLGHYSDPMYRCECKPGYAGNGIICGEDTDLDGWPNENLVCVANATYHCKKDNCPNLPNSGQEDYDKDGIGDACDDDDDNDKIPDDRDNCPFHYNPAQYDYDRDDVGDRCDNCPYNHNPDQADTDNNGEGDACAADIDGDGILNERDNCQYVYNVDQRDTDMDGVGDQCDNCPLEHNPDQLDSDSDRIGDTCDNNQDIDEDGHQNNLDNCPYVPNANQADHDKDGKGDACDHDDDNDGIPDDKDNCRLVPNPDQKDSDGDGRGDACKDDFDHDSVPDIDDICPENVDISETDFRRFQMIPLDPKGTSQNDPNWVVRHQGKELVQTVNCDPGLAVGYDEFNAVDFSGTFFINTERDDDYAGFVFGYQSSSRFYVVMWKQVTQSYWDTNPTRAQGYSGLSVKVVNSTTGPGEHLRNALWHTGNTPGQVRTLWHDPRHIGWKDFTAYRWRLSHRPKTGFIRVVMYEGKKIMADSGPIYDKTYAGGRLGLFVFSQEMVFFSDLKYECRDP
Substance,"inhibition at 100 µM ([1]; 3 h, 100 μM polypeptide, 0.25 μg/mL Fc-tagged CD36, blocking of CD36 binding to TSP-1, read-out: Blocking rate (Mean, %)) [%]",IC50 ([1]; concentrations 0-100 μM) [µM],Mean (relative fluorescence intensity) [2],"Inflammatory score Mean ([3]; 3 mg/kg intratracheal twice weekly x4 from Day 8, Day 21, HE staining, BLM model 2.25, negative control 0.36)","Fibrosis score Mean ([3]; 3 mg/kg intratracheal twice weekly x4 from Day 8, Day 21, Masson's trichrome, BLM model 3.25, negative control 1.01)","Blocking rate (Mean, %) [1, 7] [%]","active TGF-β content in lung tissue, ratio to model group, Mean(%) (active TGF-β)","P-Smad2/3 content in lung tissue, ratio to model group, Mean(%) (P-Smad2/3)",MCF7 migration Mean (%) [4] [%],HEPG2/C3A migration Mean (%) [5] [%],A549 migration Mean (%) [6] [%]
"H-YRVRFLAKENVTQDAEDN-OH [SEQ ID NO: 50, Tyr-Arg-Val-Arg-Phe-Leu-Ala-Lys-Glu-Asn-Val-Thr-Gln-Asp-Ala-Glu-Asp-Asn, reference compound]",23.4,10.6,0.84,1.98,2.81,–,–,–,–,–,–
Ac-Thr-Gln-Asp-Ala-Glu-Asp-NH2 (Ac-TQDAED-NH2) [SEQ ID NO: 04],–,–,–,–,–,16.89,74.10,67.91,62.78,81.13,57.90
Ac-Gln-Asp-Ala-Glu-Asp-Asn-NH2 (Ac-QDAEDN-NH2) [SEQ ID NO: 05],–,–,–,–,–,15.07,74.15,72.35,42.55,74.72,63.92
